For this assay, the system named is P388 leukemia ip, CD2F1 mice, survival T/C. Put plainly: NCI In Vivo Anticancer Drug Screen. Data for tumor model P388 Leukemia (intraperitoneal) in CD2F1 (CDF1) mice. The note with it: endpoint: median survival time, higher = longer survival. A digest of the protocol: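 Mice carrying the transplanted tumor received test compound or vehicle. Survival was recorded in each group, and the value is the treated-group measurement divided by that of the vehicle-treated control group.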

Setting [1] is: dose: 12.5 mg/kg/injection, schedule: Q01DX005 (ip), vehicle: saline with Tween-80.
Where [2] appears, read: dose: 50.0 mg/kg/injection, schedule: Q01DX005 (ip), vehicle: saline with Tween-80.
Where [3] appears, read: dose: 12.5 mg/kg/injection, schedule: Q01DX005 (ip), vehicle: Klucel (hydroxypropylcellulose) (HPC).
[4] abbreviates: dose: 25.0 mg/kg/injection, schedule: Q01DX005 (ip), vehicle: Klucel (hydroxypropylcellulose) (HPC).
Where [5] appears, read: dose: 50.0 mg/kg/injection, schedule: Q01DX005 (ip), vehicle: Klucel (hydroxypropylcellulose) (HPC).
Setting [6] is: dose: 60.0 mg/kg/injection, schedule: Q01DX005 (ip), vehicle: Klucel (hydroxypropylcellulose) (HPC).
Where [7] appears, read: dose: 120.0 mg/kg/injection, schedule: Q01DX005 (ip), vehicle: Klucel (hydroxypropylcellulose) (HPC).
[8] abbreviates: dose: 240.0 mg/kg/injection, schedule: Q01DX005 (ip), vehicle: Klucel (hydroxypropylcellulose) (HPC).
Where [9] appears, read: dose: 100.0 mg/kg/injection, schedule: Q01DX005 (ip), vehicle: Klucel (hydroxypropylcellulose) (HPC).
The mark [10] stands for this setting: dose: 200.0 mg/kg/injection, schedule: Q01DX005 (ip), vehicle: Klucel (hydroxypropylcellulose) (HPC).
[11] abbreviates: dose: 100.0 mg/kg/injection, schedule: Q01DX005 (ip), vehicle: saline with Tween-80.
The mark [12] stands for this setting: dose: 200.0 mg/kg/injection, schedule: Q01DX005 (ip), vehicle: saline with Tween-80.
Where [13] appears, read: dose: 60.0 mg/kg/injection, schedule: Q01DX005 (ip), vehicle: saline with Tween-80.
The mark [14] stands for this setting: dose: 120.0 mg/kg/injection, schedule: Q01DX005 (ip), vehicle: saline with Tween-80.
[15] abbreviates: dose: 240.0 mg/kg/injection, schedule: Q01DX005 (ip), vehicle: saline with Tween-80.

These results are taken from PubChem BioAssay AID330 (DTP/NCI, 2004).

Where “and” joins values, the source holds several entries; their conditions need not be identical. Identical values can stand only once. Inconclusive results and toxic doses are left out.

Turning to `CC(C)n1c2c(c3ccccc3c1=O)C(=O)c1ccccc1-2`, the T/C by setting is: under setting [1], 95 % of control; (dose: 25.0 mg/kg/injection, schedule: Q01DX005 (ip), vehicle: saline with Tween-80) 86 % of control; under setting [2], 86 % of control.
`C/C(=N\NC(=S)N1CCN(c2ccccn2)CC1)c1nccs1`: the T/C runs as follows: (dose: 6.25 mg/kg/injection, schedule: Q01DX005 (ip), vehicle: saline with Tween-80) 105 % of control; under setting [1], 113 % of control.
In the case of `COC(=O)C1(CC(=O)c2ccc(OC)cc2)NC(=S)NC(=O)C1C#N` (stereo not given), the T/C by setting is: (dose: 60.0 mg/kg/injection, schedule: Q01DX005 (ip), vehicle: saline) 100 % of control; (dose: 120.0 mg/kg/injection, schedule: Q01DX005 (ip), vehicle: saline) 98 % of control; (dose: 240.0 mg/kg/injection, schedule: Q01DX005 (ip), vehicle: saline) 86 % of control.
As to `CCC1CCCN(CCc2c(C3(CO)CCC(CO)c4c(CCN5CCCC(CC)C5)c5ccccc5n43)[nH]c3ccccc23)C1` (stereo not given), the T/C runs as follows: (dose: 0.7 mg/kg/injection, schedule: Q01DX009 (ip), vehicle: saline with Tween-80) 106 % of control; (dose: 1.4 mg/kg/injection, schedule: Q01DX009 (ip), vehicle: saline with Tween-80) 102 % of control; (dose: 2.8 mg/kg/injection, schedule: Q01DX009 (ip), vehicle: saline with Tween-80) 102 % of control.
Turning to `CC1CC(=O)C2(C)C1CC1CCC2(C)OC1(C)C` (stereo not given), the T/C reads like this: (dose: 100.0 mg/kg/injection, schedule: Q01DX009 (ip), vehicle: saline with Tween-80) 100 % of control; (dose: 200.0 mg/kg/injection, schedule: Q01DX009 (ip), vehicle: saline with Tween-80) 102 % of control; (dose: 400.0 mg/kg/injection, schedule: Q01DX009 (ip), vehicle: saline with Tween-80) 100 % of control.
On to `CCOC(=N)N1[C@@H]2CCCC[C@@H]21`, for which the T/C by setting is: (dose: 100.0 mg/kg/injection, schedule: Q04DX002 (ip), vehicle: saline) 101 % of control; (dose: 200.0 mg/kg/injection, schedule: Q04DX002 (ip), vehicle: saline) 109 % of control; (dose: 400.0 mg/kg/injection, schedule: Q04DX002 (ip), vehicle: saline) 120 % of control.
On to `N#CC1C2C1C1C=CC2n2c(=O)n(-c3ccccc3)c(=O)n21` (stereo not given), for which the T/C (dose: 6.25 mg/kg/injection, schedule: Q01DX005 (ip), vehicle: Klucel (hydroxypropylcellulose) (HPC)) is 99 % of control; the T/C under setting [3] was 102 % of control; the T/C under setting [4] was 108 % of control and 98 % of control; the T/C under setting [5] is 99 % of control and 111 % of control.
`CCOc1c(N=Nc2ccccc2C)c(C)nn1C(=S)S`: the T/C was 97 % of control under setting [6], 95 % of control under setting [7] and 97 % of control under setting [8].
`CCCN(CCC)CCCCCO`: the T/C reads like this: (dose: 50.0 mg/kg/injection, schedule: Q04DX003 (ip), vehicle: saline with Tween-80) 104 % of control; (dose: 100.0 mg/kg/injection, schedule: Q04DX003 (ip), vehicle: saline with Tween-80) 100 % of control; (dose: 200.0 mg/kg/injection, schedule: Q04DX003 (ip), vehicle: saline with Tween-80) 100 % of control.
Regarding `CN1C(c2ccccc2)CC(=O)C(N)C1c1ccccc1` (stereo not given), the T/C is, setting by setting: (dose: 50.0 mg/kg/injection, schedule: Q01DX005 (ip), vehicle: distilled water + Tween-80) 92 % of control; (dose: 100.0 mg/kg/injection, schedule: Q01DX005 (ip), vehicle: distilled water + Tween-80) 90 % of control; (dose: 200.0 mg/kg/injection, schedule: Q01DX005 (ip), vehicle: distilled water + Tween-80) 92 % of control.
As to `NCC(=O)NC(CSC(c1ccccc1)c1ccccc1)C(=O)NCC(=O)O` (stereo not given), the T/C under setting [5] was 102 % of control, the T/C under setting [9] is 103 % of control and the T/C under setting [10] was 96 % of control.
Turning to `CC(C)[NH-].CC(C)[NH-].O.O.[Cl][Pt+2][Cl]`, the T/C runs as follows: (dose: 8.0 mg/kg/injection, schedule: Q01DX009 (ip), vehicle: saline with Tween-80) 167 % of control; (dose: 12.5 mg/kg/injection, schedule: Q01DX009 (ip), vehicle: saline with Tween-80) 184 % of control; (dose: 18.0 mg/kg/injection, schedule: Q01DX009 (ip), vehicle: saline with Tween-80) 202 % of control.
Turning to `CC1(C)OC2(C)CCC1C1C2N1C(=O)Nc1cccc2ccccc12` (stereo not given), the T/C reads like this: under setting [2], 99 % of control; under setting [11], 97 % of control; under setting [12], 93 % of control.
`CCc1nc(N)nc(N)c1-c1ccc(NCCc2ccccc2)c(N)c1`: the T/C was 90 % of control under setting [5], 96 % of control under setting [9] and 100 % of control under setting [10].
For `Cc1ccc(S(=O)(=O)N/N=C2\COC(C)C2)cc1` (stereo not given), the T/C under setting [2] was 93 % of control and the T/C under setting [11] is 91 % of control.
As for `Cc1c2cccc(F)c2c[n+]2ccccc12`, the T/C is, setting by setting: (dose: 6.25 mg/kg/injection, schedule: Q01DX009 (ip), vehicle: Klucel (hydroxypropylcellulose) (HPC)) 96 % of control; (dose: 12.5 mg/kg/injection, schedule: Q01DX009 (ip), vehicle: Klucel (hydroxypropylcellulose) (HPC)) 103 % of control; (dose: 25.0 mg/kg/injection, schedule: Q01DX009 (ip), vehicle: Klucel (hydroxypropylcellulose) (HPC)) 102 % of control and 113 % of control.
For `CC(=O)[C-](Cl)C(C)=O.CC(=O)[C-](Cl)C(C)=O.CC(=O)[C-](Cl)C(C)=O.[Ru+3]`, the T/C under setting [13] is 111 % of control, the T/C under setting [14] is 109 % of control and the T/C under setting [15] was 98 % of control.
For the compound `CCN(CC)C1=Nc2ccccc2N(c2ccccc2)C(=S)C1`, the T/C reads like this: under setting [5], 106 % of control; under setting [9], 103 % of control; under setting [10], 100 % of control.
As to `O=c1[nH]c2ccc(O)cc2o1`, the T/C under setting [13] is 108 % of control, the T/C under setting [14] was 95 % of control and the T/C under setting [15] is 100 % of control.
In the case of `COC(=O)C1=COC(OC2OC(CO)C(O)C(O)C2O)C2C(C)C(O)C(OC(=O)/C=C/c3ccc(OC)cc3)C12` (stereo not given), the T/C reads like this: (dose: 9.38 mg/kg/injection, schedule: Q01DX005 (ip), vehicle: Klucel (hydroxypropylcellulose) (HPC)) 96 % of control; (dose: 37.5 mg/kg/injection, schedule: Q01DX005 (ip), vehicle: Klucel (hydroxypropylcellulose) (HPC)) 88 % of control; under setting [6], 93 % of control; (dose: 75.0 mg/kg/injection, schedule: Q01DX005 (ip), vehicle: Klucel (hydroxypropylcellulose) (HPC)) 88 % of control; under setting [7], 93 % of control; under setting [8], 86 % of control.
For `CNC(=S)N/N=C(\C=N\NC(=S)NC)c1ccc(C)cc1`, the T/C runs as follows: (dose: 50.0 mg/kg/injection, schedule: Q01DX009 (ip), vehicle: Klucel (hydroxypropylcellulose) (HPC)) 98 % of control; (dose: 100.0 mg/kg/injection, schedule: Q01DX009 (ip), vehicle: Klucel (hydroxypropylcellulose) (HPC)) 98 % of control; (dose: 200.0 mg/kg/injection, schedule: Q01DX009 (ip), vehicle: Klucel (hydroxypropylcellulose) (HPC)) 90 % of control; (dose: 400.0 mg/kg/injection, schedule: Q01DX009 (ip), vehicle: Klucel (hydroxypropylcellulose) (HPC)) 90 % of control.
In the case of `O=C(/C=C/c1ccco1)c1ccc(Cl)cc1`, the T/C (dose: 50.0 mg/kg/injection, schedule: Q01DX001 (ip), vehicle: saline sonified) is 100 % of control; the T/C (dose: 100.0 mg/kg/injection, schedule: Q01DX001 (ip), vehicle: saline sonified) was 95 % of control; the T/C (dose: 200.0 mg/kg/injection, schedule: Q01DX001 (ip), vehicle: saline sonified) is 100 % of control.
In the case of `COC(=O)/C=C\C1(CCC(=O)OC)N=C(c2ccccc2)OC1=O` (stereo not given), the T/C is, setting by setting: under setting [2], 101 % of control; under setting [11], 92 % of control; under setting [12], 96 % of control.
For `COc1cc(CC2C(=O)OCC2C(=O)c2ccc3c(c2)OCO3)cc(OC)c1OC` (stereo not given), the T/C is, setting by setting: under setting [3], 102 % of control; under setting [4], 102 % of control; under setting [5], 91 % of control and 93 % of control; under setting [9], 98 % of control; under setting [10], 98 % of control.
On to `Nc1nnc2nc(C3(c4nc5nnc(N)n5[nH]c4=O)Cc4ccccc4C3=O)c(=O)[nH]n12`, for which the T/C was 91 % of control under setting [2], 100 % of control under setting [11] and 108 % of control under setting [12].
